ChEMBL document CHEMBL1201862, “PubChem BioAssay data set” (2004)
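Each compound was tested at five concentrations against cells in 96-well plates for 48 hours. Abbreviation: GI50, concentration required for 50% inhibition of growth.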 Active and inactive are the calls of the source. Cut-off read from the data, not from the text of the source: active = GI50 up to about 1.1 µM and inactive = higher.

Columns and labels:
Assay in all cases: NCI anticancer screen, dose series, 48 h
LXFL 529 = system: LXFL 529
SK-MEL-2 = system: SK-MEL-2
NCI-H460 = system: NCI-H460
XF498 = system: XF498
K562 = system: K562
OVCAR-3 = system: OVCAR-3
SK-MEL-28 = system: SK-MEL-28
SW-620 = system: SW-620
M14 = system: M14
HCC 2998 = system: HCC 2998
ACHN = system: ACHN
SR = system: SR
LOX IMVI = system: LOX IMVI
HCT-116 = system: HCT-116
NCI-H23 = system: NCI-H23
SF-268 = system: SF-268
SNB-19 = system: SNB-19
TK-10 = system: TK-10
A549 = system: A549
OVCAR-5 = system: OVCAR-5
HT-29 = system: HT-29
SN12C = system: SN12C
OVCAR-4 = system: OVCAR-4
U-251 = system: U-251
CAKI-1 = system: CAKI-1
KM12 = system: KM12
RXF 631 = system: RXF 631
HCT-15 = system: HCT-15
HOP-62 = system: HOP-62
HL-60 = system: HL-60
MOLT-4 = system: MOLT-4
NCI-H522 = system: NCI-H522
DMS-273 = system: DMS-273
786-0 = system: 786-0
DLD-1 = system: DLD-1
RXF 393 = system: RXF 393
RPMI-8226 = system: RPMI-8226
SF-295 = system: SF-295
M19-MEL = system: M19-MEL
SNB-78 = system: SNB-78
SF-539 = system: SF-539
IGROV-1 = system: IGROV-1
EKVX = system: EKVX
UACC-257 = system: UACC-257
KM-20L2 = system: KM-20L2
UO-31 = system: UO-31
SK-OV-3 = system: SK-OV-3
UACC-62 = system: UACC-62
COLO 205 = system: COLO 205
HOP-92 = system: HOP-92
Malme-3M = system: Malme-3M
CCRF-CEM = system: CCRF-CEM
OVCAR-8 = system: OVCAR-8
HOP-18 = system: HOP-18
A498 = system: A498
DMS-114 = system: DMS-114
SNB-75 = system: SNB-75
SK-MEL-5 = system: SK-MEL-5
NCI-H226 = system: NCI-H226

Measured: GI50

Cc1nc(NC(=S)NC(=O)c2ccc(Cl)c(Cl)c2)sc1C(=O)/C=C/c1ccccc1[N+](=O)[O-]
20.4 µM: HCT-15
inactive: LXFL 529 21.6 µM | SK-MEL-2 18.4 µM | NCI-H460 28.9 µM | XF498 20.6 µM | K562 18.2 µM | OVCAR-3 22.1 µM | SK-MEL-28 25.4 µM | SW-620 20.2 µM | M14 23.8 µM | HCC 2998 33.3 µM | ACHN 24.4 µM | SR 24.5 µM | LOX IMVI 16.6 µM | HCT-116 20.7 µM | NCI-H23 20.9 µM | SF-268 39.4 µM | SNB-19 21.1 µM | TK-10 36.1 µM | A549 25.3 µM | OVCAR-5 > 10 µM | HT-29 21.3 µM | SN12C 21.6 µM | OVCAR-4 26.8 µM | U-251 17.9 µM | CAKI-1 21.1 µM | KM12 18.7 µM | RXF 631 24.1 µM | HOP-62 21.2 µM | HL-60 19.1 µM | MOLT-4 19.8 µM | NCI-H522 16.9 µM | DMS-273 20.9 µM | 786-0 17.8 µM | DLD-1 48.9 µM | RXF 393 19.4 µM | RPMI-8226 24.2 µM | SF-295 24.2 µM | M19-MEL 26.8 µM | SNB-78 30.1 µM | SF-539 19 µM | IGROV-1 24.5 µM | EKVX 32.7 µM | UACC-257 30.1 µM | KM-20L2 18.6 µM | UO-31 20.8 µM | SK-OV-3 15.6 µM | UACC-62 10.9 µM | COLO 205 18.4 µM | Malme-3M 18.5 µM | CCRF-CEM 22.4 µM | OVCAR-8 28.1 µM | HOP-18 12.4 µM
active: HOP-92 0.989 µM

O=[N+]([O-])c1cccc(C2=NN(c3ccccc3)C3c4ccccc4OCC23)c1 (configuration not stated)
inactive: LXFL 529 > 100 µM | SK-MEL-2 > 100 µM | NCI-H460 > 100 µM | XF498 > 100 µM | A498 > 100 µM | K562 75.3 µM | OVCAR-3 > 100 µM | SK-MEL-28 > 100 µM | SW-620 > 100 µM | HCC 2998 > 100 µM | ACHN > 100 µM | LOX IMVI > 100 µM | HCT-116 27.2 µM | NCI-H23 > 100 µM | SF-268 > 100 µM | SNB-19 > 100 µM | TK-10 > 100 µM | A549 > 100 µM | OVCAR-5 > 100 µM | HT-29 > 100 µM | U-251 > 100 µM | KM12 > 100 µM | RXF 631 > 100 µM | HOP-62 > 100 µM | DMS-114 > 100 µM | HL-60 66.1 µM | MOLT-4 > 100 µM | NCI-H522 62.1 µM | DMS-273 > 100 µM | 786-0 > 100 µM | DLD-1 > 100 µM | RXF 393 > 100 µM | SNB-75 > 100 µM | RPMI-8226 > 100 µM | SF-295 > 100 µM | M19-MEL > 100 µM | SNB-78 > 100 µM | SF-539 > 100 µM | IGROV-1 > 100 µM | EKVX > 100 µM | UACC-257 > 100 µM | KM-20L2 > 100 µM | UO-31 6.71 µM | SK-OV-3 > 100 µM | COLO 205 > 100 µM | HOP-92 52.8 µM | Malme-3M > 100 µM | CCRF-CEM 91 µM | OVCAR-8 > 100 µM | HOP-18 > 100 µM

COC(=O)C1=C(c2cc(OC)c(OC)c(OC)c2)O[C@H](c2ccc3c(c2)OCO3)[C@H]1COC(C)=O
22.1 µM: HCT-15
inactive: LXFL 529 20.3 µM | SK-MEL-5 9.35 µM | SK-MEL-2 27.2 µM | NCI-H460 30.5 µM | XF498 33.6 µM | A498 21.4 µM | NCI-H226 33 µM | K562 21.3 µM | OVCAR-3 30.5 µM | SW-620 25.2 µM | M14 15.3 µM | HCC 2998 18.3 µM | ACHN 26.4 µM | SR 7.35 µM | LOX IMVI 32.1 µM | NCI-H23 19.1 µM | TK-10 39.2 µM | OVCAR-5 48.6 µM | HT-29 18.6 µM | SN12C 24.7 µM | OVCAR-4 29 µM | U-251 24.1 µM | CAKI-1 19.8 µM | KM12 20.2 µM | RXF 631 42.3 µM | HOP-62 21.5 µM | HL-60 15.6 µM | MOLT-4 18.7 µM | DMS-273 26.6 µM | 786-0 29.4 µM | DLD-1 26.3 µM | SNB-75 27.3 µM | RPMI-8226 24.2 µM | SF-295 6.85 µM | M19-MEL 20.7 µM | SNB-78 26.7 µM | SF-539 26.3 µM | IGROV-1 22.2 µM | EKVX 41.6 µM | UACC-257 40.7 µM | KM-20L2 30.3 µM | UO-31 20.9 µM | SK-OV-3 23.1 µM | COLO 205 10.7 µM | HOP-92 7.24 µM | Malme-3M 34.4 µM | CCRF-CEM 40.2 µM | OVCAR-8 39.3 µM | HOP-18 26.7 µM

CN(C)CCCN1N=Nc2cccc3cccc1c23
38.1 µM: HCT-15
inactive: LXFL 529 > 50.9 µM | SK-MEL-5 > 84.9 µM | SK-MEL-2 > 100 µM | NCI-H460 33.1 µM | XF498 86.9 µM | A498 78.7 µM | NCI-H226 > 100 µM | K562 26.7 µM | OVCAR-3 > 100 µM | SK-MEL-28 > 100 µM | SW-620 24.3 µM | M14 > 43.4 µM | HCC 2998 > 59 µM | ACHN 56.1 µM | SR 26.5 µM | LOX IMVI 41.9 µM | HCT-116 28.8 µM | NCI-H23 > 100 µM | SF-268 > 85.9 µM | SNB-19 > 100 µM | TK-10 > 100 µM | A549 > 100 µM | OVCAR-5 > 91.4 µM | HT-29 33.3 µM | SN12C 63.8 µM | OVCAR-4 20.3 µM | U-251 > 74.3 µM | CAKI-1 > 71.3 µM | KM12 > 79.3 µM | RXF 631 87.5 µM | HOP-62 > 100 µM | DMS-114 > 42.1 µM | HL-60 30.3 µM | MOLT-4 29 µM | NCI-H522 50.9 µM | DMS-273 19.4 µM | 786-0 17.9 µM | DLD-1 > 60.1 µM | SNB-75 > 100 µM | RPMI-8226 > 51.1 µM | SF-295 > 90.8 µM | M19-MEL > 51.4 µM | SNB-78 62.4 µM | SF-539 > 60.7 µM | IGROV-1 > 100 µM | EKVX > 100 µM | UACC-257 > 91.8 µM | KM-20L2 54.3 µM | UO-31 > 64.6 µM | SK-OV-3 > 100 µM | UACC-62 > 100 µM | COLO 205 34.6 µM | HOP-92 90.6 µM | Malme-3M > 100 µM | CCRF-CEM 27.9 µM | OVCAR-8 > 77.3 µM | HOP-18 99.3 µM

N#CC(C(=N/NC(N)=S)/C(=N\NC(N)=S)C(C#N)c1ccccc1)c1ccccc1 (configuration not stated)
> 10 µM: HCT-15
inactive: LXFL 529 > 10 µM | SK-MEL-2 > 10 µM | NCI-H460 > 10 µM | XF498 > 10 µM | A498 > 10 µM | NCI-H226 > 10 µM | K562 > 10 µM | OVCAR-3 > 10 µM | SK-MEL-28 > 10 µM | SW-620 > 10 µM | M14 > 10 µM | HCC 2998 > 10 µM | ACHN > 10 µM | LOX IMVI > 10 µM | HCT-116 > 10 µM | NCI-H23 > 10 µM | SF-268 > 10 µM | SNB-19 > 10 µM | TK-10 > 10 µM | A549 > 10 µM | OVCAR-5 > 10 µM | HT-29 > 10 µM | SN12C > 10 µM | OVCAR-4 > 10 µM | U-251 > 10 µM | KM12 > 10 µM | RXF 631 > 10 µM | HOP-62 > 10 µM | DMS-114 > 10 µM | HL-60 > 10 µM | MOLT-4 > 10 µM | NCI-H522 > 10 µM | DMS-273 > 10 µM | 786-0 > 10 µM | DLD-1 > 10 µM | RXF 393 > 10 µM | SNB-75 > 10 µM | RPMI-8226 > 10 µM | SF-295 > 10 µM | M19-MEL > 10 µM | SNB-78 > 10 µM | SF-539 > 10 µM | EKVX > 10 µM | UACC-257 > 10 µM | KM-20L2 > 10 µM | UO-31 > 10 µM | SK-OV-3 > 10 µM | UACC-62 > 10 µM | COLO 205 > 10 µM | HOP-92 > 10 µM | Malme-3M > 10 µM | CCRF-CEM > 10 µM | OVCAR-8 > 10 µM | HOP-18 > 10 µM
